Reference: patent publication US20260256771A1, “GALUNISERTIB FOR USE IN THE TREATMENT OF ANDROGENIC ALOPECIA” (SAÚDE VIÁVEL, S.A., priority 2022, published 2026)

Assays:
[1] = tested on: phosphorylated SMAD2 (p-SMAD2); assay: Western blot of phospho-SMAD2 in hair bulbs of HFOCs; type: cell-based, human; settings: HFOCs treated with DHT or DHT+galunisertib for 72 h
Experimental: For western blot, hair bulbs are dissected from HFOCs treated with DMSO, DHT and Galunisertib for 72 h. Upon rinse in PBS, hair bulbs are lysed in Laemmli buffer (without bromophenol blue) with Halt Protease Inhibitor Cocktail and Halt Phosphatase Inhibitor Cocktail, and lysates are sonicated. Lysates from 10 hair bulbs are used for each condition tested. Total extracts are then loaded in SDS-polyacrylamide gels and transferred onto nitrocellulose membranes for western blot analysis. Membranes are blocked during 1 h with TBS+5% BSA. Primary and secondary antibodies are diluted in TBS+2% BSA accordingly to Supplementary Table 1. Signal is detected using Clarity Western ECL Substrate reagent. A GS-800 calibrated densitometer with Quantity One 1-D Analysis Software 4.6 (Bio-Rad Laboratories) is used for quantitative analysis of protein levels.
(§1) In addition, only anagen hair follicles are used.
(§2) Hair growth percentages is normalized to day 0.

[2] = tested on: cleaved Caspase 3; assay: Immunohistochemistry of cryo-sectioned HFOCs: cleaved Caspase 3; type: cell-based, human; settings: mainly detected in the DP; HFOCs treated with Galunisertib for 48 h vs untreated
Excerpt: as §2
(§3) FIG. 5. Galunisertib improves cell proliferation and the WNT signaling in the bulb epithelial compartment. a) Representative IHC images of tissue sections of HFOCs untreated and treated with Galunisertib and stained for KI67 and cleaved caspase 3. Nuclei were counterstained with DAPI. Scale bar, 100 μm. b,c) Adjusted intensity levels of KI67 and cleaved caspase 3 per DP and HB (bulb epithelium) areas, respectively, as measured in tissue sections from HFOCs with and without Galunisertib. All values are mean±SD of HFOCs established from n=8 donors (n>16 HFs per condition). ns p≥0.05, *p≤0.05 by unpaired t-test.
(§4) For immunohistochemistry, 2-day HFOCs are used for immunohistochemistry analysis. Briefly, HFs were embedded on a drop of OCT and stored at −80° C. 8 μm cryosections are air-dried and fixed in 4% PFA (for TGFβ2, cleavage Caspase 3, p-SMAD2 and KI67 immunostainings) or cold acetone (for LEF1 and β-catenin immunostaining). Following 2×5 min rinse with PBS, microsections are permeabilized 2× for 10 min with PBS+0.3% Triton X 100 (PBS-T) and then blocked with PBS+10% fetal bovine serum (FBS) for 1 hour at room temperature. Antibodies are diluted in PBS-T+1% FBS and incubation done overnight at 4° C. […]

[3] = Mass spectrometry of skin biopsies; type: in vivo, mouse; settings: skin retrieved at day 14, N=3, mean±SD
Experimental: For mass spectrometry of skin biopsies, dorsal skin of mice under 10 μM and 100 μM galunisertib topical treatment for 14 days is collected after anesthesia (Ketamine 150 mg/kg+Medetomidine 2 mg/kg) and perfusion with PBS. Skin samples are snap frozen and stored at −80° C. until being sent for mass spec analysis by Cyprotex. Skin samples from N=3 animals per condition are homogenized 1:4 in mouse plasma, then quantified against a mouse plasma calibration curve. Analytical runs meeting calibration standard and QC acceptance criteria.

[4] = tested on: Ki67 proliferation marker; assay: Immunohistochemistry of cryo-sectioned HFOCs: Ki67; type: cell-based, human; settings: HFOCs treated with Galunisertib for 48 h vs untreated
Excerpt: as §2, §3, §4

[5] = tested on: TGFβ2; assay: qRT-PCR of TGFβ transcripts in dermal papilla isolated from HFOCs; type: cell-based, human; settings: Galunisertib-treated HFOCs (10 μM, 48 h)
Excerpt: Concentration and purity are ascertained in a NanoDrop spectrophotometer.
as §1, §2

[6] = tested on: C57BL/6 depilated male mice; assay: Histology (hematoxylin-eosin) of dorsal skin: number of hair follicles; type: in vivo, mouse
Experimental: FIG. 8. Galunisertib increases anagenic hair follicle growth. a) Hematoxilin-eosin staining of transversal paraffin sections of the dorsal skin of mice treated with vehicle (control), galunisertib (10 μM and 100 μM) or minoxidil at days 0, 5, 7, 14, 16 and 18 of treatment. Scale bar, 500 μm. b) Number of hair follicles per field view and c) number of hair follicles per field view in the subcutaneous layer at different timepoints along the experiment. d) Ki67 immunostaining of longitudinal paraffin sections of the dorsal skin of mice treated with vehicle (control), galunisertib (10 μM and 100 μM) or minoxidil at days 5, 7 and 14. Scale bar, 200 μm. e) Number of Ki67-positive cells in the hair bulb at days 5, 7 and 14. N≥3 animals per timepoint per condition were analyzed, and N≥4 field views were quantified per animal. Values are mean±SD. *p<0.05; **p<0.01 by Student's t-test.
For histology and immunohistochemistry, dorsal skin from the depilated region is collected from mice at different timepoints across the experiment (days 0, 5, 7, 14 and 18) and fixed in 10% buffered formalin, imbedded in paraffin and sectioned along the transversal and longitudinal plan of the hair follicles (3 μm sections). Standard protocol is used for hematoxylin and eosin staining. For immunohistochemistry, slides are deparaffinized, then antigen retrieval is performed using HistoVT One (#06380-05, Nacalai Tesque Inc.) for 40 min in a steamer, following 20 min of cooling at room temperature (RT). After washing with TBS-0.01% Tween (TBS-T), peroxidase is blocked using Bloxall (#SP-6000, Vector Laboratories Inc.) for 10 min. Slides are then washed with TBS-T, and blocked using 2.5% Normal Horse Serum (#MP7500, Impress universal kit, Vector Laboratories Inc.) for 20 min. Following this, slides are incubated with rabbit anti-Ki67 antibody (D3B5) in 0.25% Normal Horse Serum overnight at 4° C. Next day, after thoroughly washing with TBS-T, the slides are incubated with a secondary anti-mouse/anti-rabbit antibody (#MP7500, Impress universal kit, Vector Laboratories Inc.) for 45 min RT. Impact DAB (#SK-4105, Vector Laboratories Inc.) are used to develop the slides, followed by dehydration and mounting with Entellan (#1.07961.0100, Millipore) following standard procedures.

- fluorescence intensity levels of cleaved Caspase 3 [2]: do not show significant changes
- concentration of compound in skin biopsies ([3]; topical 10 μM galunisertib): 1.6 ± 0.7 µM
- concentration of compound in skin biopsies ([3]; topical 100 μM galunisertib): 9.6 ± 0.6 µM
Compound: Cc1cccc(-c2nn3c(c2-c2ccnc4ccc(C(N)=O)cc24)CCC3)n1 [Galunisertib]
- canonical TGFβ signaling activation (phospho-SMAD2 protein levels) [1]: blocks TGFβ activation
- number of bulb epithelial cells staining positive for Ki67 [4]: increased number
- Ki67 fluorescence intensity levels ([4]; bulb epithelium): higher
- TGFβ2 gene expression in the DP [5]: inhibit TGFβ2 gene expression
- number of HFs within the subcutaneous layer (anagenic HFs) ([6]; day 5, vs vehicle): increased number of HFs
- number of anagenic HFs ([6]; day 5 to day 14): increased number of anagenic HFs
- catagen onset in mice ([6]; similar timing in all conditions): not to be delayed
- anagenic hair growth (overall) ([6]; similarly to minoxidil, but more efficiently): improves anagenic hair growth
- number of HF (per field view) ([6]; transversal HF sections, day 7 to day 14, vs control vehicle treatment): significant increase in the number of HF
- persistence of the increased number of anagenic HFs ([6]; until day 14): perdures until day 14
